Laboratory results taken from patent US8287893B2, “Bioactive agrichemical compositions and use thereof” (Sciessent LLC, priority 2007, dated 2012).
Like-named read-outs stand apart in the source and are kept apart here.

Legend:
E. amylovora 153N = test: Fire blight on Snow Drift crabapple trees (Example 287); format: in vivo; conditions: for cankers, result in words / shoot blight incidence, result in words: day 63
Description: A study of the bioefficacy of the various agrichemical compositions, including bioactive acid solutions and blends thereof with an antibiotic agrichemical, were evaluated to assess their bioefficacy against fire blight on crabapples. The study was conducted on 5 year old Snow Drift crabapple trees, with each of the compositions being applied to ten trees in two-subplots of five trees, four different times: at 100% bloom-day 1, a second application was made on day 4, a third on day 11 and a final treatment on day 19. The trees were inoculated with E. amylovora […] at a concentration of 4×10^6 cells per milliliter on day 1, following drying of the treatment, with the inoculation being repeated on day 13. Evaluation for fire blight was completed on 100 blossoms for each of the subplots on day 12, day 19 and day 27. Additionally, the incidence of shoot infection and the length of […] evaluated on day 63. The test compositions were prepared by forming solutions of the bioactive agents. Two different dilutions of the MI2 bioactive were evaluated; the first employing 94.46 ml/gallon (25 ml/l) of water (5 ppm of each metal) and the second 188.9 ml/gallon (50 ml/l) of water (10 ppm of each metal). […] Finally, copper hydroxide was diluted at a rate of 1 lb/gallon (119.8 g/l). Each of the compositions and blends were spray applied at a rate of 50 gallons (189.3 l) pre acre. The results are presented as the mean of the counts.

[1] = system: Saccharomycetes Cerevisiae (Fleishmann's Bakers yeast); test: Yeast growth suppression, turbidity of yeast suspension in growth medium; format: cell-based; set-up: key to turbidity T0 / turbidity T18 / change in turbidity T48 − T0 / turbidity T48 / turbidity T72 / turbidity T96 / change in turbidity T18 − T0 / change in turbidity T72 − T0 / change in turbidity T96 − T0: turbidity in NTU
Description: Saccharomycetes Cerevisiae was selected as a test organism as it is generally accepted in the industry as an indicator or surrogate organism for a wide variety of fungi. In each of these experiments, the same general procedure was followed unless otherwise indicated.
Experimental Detail: A growth medium was prepared by adding 10 grams of nutrient medium (Difco Sabouraud dextrose broth from BD of Franklin Lakes, N.J., USA) to 300 ml of distilled water. Fleishmann's Bakers yeast was then added to the growth medium while mixing using a magnetic stirrer until a uniform dispersion was obtained having an initial turbidity of between about 50 and 100 NTU as measured using a HF Instruments DRT 100B Turbidity Meter. Once the appropriate dispersion was obtained, 20 ml aliquots were then dispensed, with continued mixing, into 40 ml borosilicate glass vials with Teflon lined caps (VWR International Cat. No. 15900-004). The system/component to be evaluated was then added to the vial and intimately shaken to ensure a good, substantially homogeneous mixture. The turbidity of each mixture was then determined and the vial transferred to an incubator at 30° C. Each vial was periodically removed from the incubator and the mixture in the vials assessed for turbidity: the specific timing for such evaluation was as set forth in the discussion of the experiments and the accompanying tables.
In each experiment, unless otherwise specified, a 2 ml aqueous solution containing the specified bioactive system or component thereof was added to the 20 ml yeast suspension and mixed thoroughly. Typically the surfactants were added separately in a concentrated solution in water; however, the volume added was negligible: a fraction of an ml. For convenience in understanding efficacy levels, the amounts or concentrations of the various components presented in each of the following tables and experiments are of the diluted material in the test vial: not of the concentrate added to the test vial. Furthermore, the concentrations presented are on the basis of a 20 ml total volume, not the actual 22+ ml volume. Multiplying each of the listed concentrations by 0.9 (or 0.95 with those compositions using 1 ml aqueous solutions) will provide a more accurate assessment of the concentrations of the various components evaluated, i.e., a 5 ppm silver concentration is actually closer to 4.5 ppm. Finally, for those vials to which no bioactive system or component thereof was added (the controls) or which only contained the surfactants, 2 ml of additional growth medium was added to ensure relative equivalent dilutions of the yeast.
In the tables below, the results are presented as the actual turbidity readings (NTU) with a sub-table presenting the change or delta in NTU values. Given the nature of the system, changes in turbidity are reflective of the relative performance/bioefficacy of the bioactive systems and their components.

[2] = Table 12, surfactant ~0.05 wt % neat, Metal ppm 0
[3] = Table 12, surfactants ~0.05 wt %, Metal ppm 2.5 each of Cu, Ag, Zn, ~0.2% citric acid
[4] = Table 12, surfactants ~0.05 wt %, Metal ppm 5 each of Cu, Ag, Zn, ~0.4% citric acid

In the case of `[H]/N=C(/N)N[C@H]1[C@H](O)[C@@H](O)[C@H](O[C@@H]2O[C@@H](C)[C@](O)(C=O)[C@H]2O[C@@H]2O[C@@H](CO)[C@H](O)[C@@H](O)[C@@H]2NC)[C@@H](N/C(N)=N\[H])[C@@H]1O` [streptomycin], the “cankers, result in words” value (E. amylovora 153N) is reported as “appeared to prevent canker” and the “shoot blight incidence, result in words” value (E. amylovora 153N) is reported as “greatly reduced”.

For `O=C([O-])CC(O)(CC(=O)[O-])C(=O)[O-].O=C([O-])CC(O)(CC(=O)[O-])C(=O)[O-].[Zn+2].[Zn+2].[Zn+2]` [Example 7, zinc citrate], the “Change in Turbidity from T0 (delta NTU) T 96 Hours” value (shortened to “Change … (delta NTU) T 96 Hours”) [1] was 1007.2 NTU, the “Change in Turbidity from T0 (delta NTU) T 18 hours” value (shortened to “Change … (delta NTU) T 18 hours”) [1] was 948.2 NTU and the “Change in Turbidity from T0 (delta NTU) T 24 hours” value (shortened to “Change … (delta NTU) T 24 hours”) [1] was 949.2 NTU. The “Change in Turbidity from T0 (delta NTU) Time 1 Hr” value (shortened to “Change … (delta NTU) Time 1 Hr”) [1] was 20.7 NTU.

`O=C([O-])CC(O)(CC(=O)[O-])C(=O)[O-].[Ag+].[Ag+].[Ag+]` [Example 1, silver citrate] was tested, and the “Change … (delta NTU) Time 1 Hr” value ([1]; Table 1A, 1 hour) was 15.1 NTU, the “Change … (delta NTU) T 18 hours” value ([1]; Table 1A, 18 hours) was 845.5 NTU and the “Change … (delta NTU) T 24 hours” value ([1]; Table 1A, 24 hours) was 887.5 NTU. For the same molecule, the “Change … (delta NTU) T 96 Hours” value ([1]; Table 1A, 96 hours) was 950.5 NTU.

For `[Cu+2].[OH-].[OH-]` [copper hydroxide], the “Shoot Incidence” value (E. amylovora 153N; Day 63, rate 5 lbs/a (2.27 kg/a), mean of the counts) was 1.0, the “cankers, result in words” value (E. amylovora 153N) was “appeared to prevent canker” and the “shoot blight incidence, result in words” value (E. amylovora 153N) was “greatly reduced”.

In the case of `CCCCCCCCCCCCOS(=O)(=O)[O-].[Na+]`, the “change in turbidity T48 − T0” value [1, 2] is reported as 610, the “turbidity T0” value [1, 2] is reported as 48 and the “turbidity T18” value [1, 2] is reported as 495. For the same molecule, the “change in turbidity T18 − T0” value [1, 3] was 2, the “change in turbidity T48 − T0” value [1, 3] was 0 and the “change in turbidity T72 − T0” value [1, 3] was 0. The “change in turbidity T96 − T0” value [1, 3] was −1, the “turbidity T0” value [1, 3] was 88 and the “turbidity T18” value [1, 3] was 90. The “turbidity T48” value [1, 3] was 88, the “turbidity T72” value [1, 3] was 88 and the “turbidity T96” value [1, 3] was 87. For the same molecule, the “change in turbidity T18 − T0” value [1, 4] was 13, the “change in turbidity T48 − T0” value [1, 4] was 2 and the “change in turbidity T72 − T0” value [1, 4] was 7. For the same molecule, the “change in turbidity T96 − T0” value [1, 4] was 1.

With copper citrate [Example 13] the “Change … (delta NTU) T 96 Hours” value [1] was 1054.4 NTU, the “Change … (delta NTU) T 18 hours” value [1] was 894.4 NTU and the “Change … (delta NTU) T 24 hours” value [1] was 975.4 NTU. For the same molecule, the “Change … (delta NTU) Time 1 Hr” value [1] was 22.4 NTU.
